Results on one molecule are retold here after patent US6180378A, “Immobilization of bioactive protein in phyllosilicates” (The United States of America as represented by the …, priority 1999, dated 2001).

Experiment [1] has as its target T1, soybean lipoxygenase (LOX, type I-B) immobilized in crosslinked phyllosilicate (TMOS-crosslinked montmorillonite) (Glycine max, UniProt P08170).
T1 construct: purchased Sigma, St. Louis, Mo
T1 sequence (P08170 1-839): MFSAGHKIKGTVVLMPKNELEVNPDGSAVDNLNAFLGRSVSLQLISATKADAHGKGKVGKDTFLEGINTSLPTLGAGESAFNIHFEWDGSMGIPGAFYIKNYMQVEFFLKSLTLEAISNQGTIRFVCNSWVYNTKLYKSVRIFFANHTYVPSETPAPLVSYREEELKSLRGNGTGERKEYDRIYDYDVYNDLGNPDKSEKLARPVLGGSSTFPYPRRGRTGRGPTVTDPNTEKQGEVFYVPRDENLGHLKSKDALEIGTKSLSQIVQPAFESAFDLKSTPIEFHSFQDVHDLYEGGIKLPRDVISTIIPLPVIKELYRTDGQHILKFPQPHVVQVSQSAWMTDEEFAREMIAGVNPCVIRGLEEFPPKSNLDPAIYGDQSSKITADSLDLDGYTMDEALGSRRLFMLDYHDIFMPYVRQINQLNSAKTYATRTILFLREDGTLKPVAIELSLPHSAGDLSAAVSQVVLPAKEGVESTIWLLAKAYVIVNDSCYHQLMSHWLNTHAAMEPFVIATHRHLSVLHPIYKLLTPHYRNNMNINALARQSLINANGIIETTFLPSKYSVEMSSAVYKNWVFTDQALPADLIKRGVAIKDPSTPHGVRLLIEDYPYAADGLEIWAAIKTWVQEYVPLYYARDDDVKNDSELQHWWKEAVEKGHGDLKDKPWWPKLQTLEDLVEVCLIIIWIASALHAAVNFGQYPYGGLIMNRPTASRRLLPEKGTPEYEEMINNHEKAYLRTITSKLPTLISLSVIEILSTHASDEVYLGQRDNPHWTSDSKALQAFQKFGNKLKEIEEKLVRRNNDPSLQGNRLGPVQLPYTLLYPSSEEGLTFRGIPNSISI
In words: LOX oxidation of linoleic acid, hydroperoxide (HPOD) formation, immobilized enzyme. The settings on record: substrate linoleic acid 0-20 μmoles; Lineweaver-Burk plot; LOX immobilized in crosslinked phyllosilicates. Type of experiment: biochemical. The protocol: Measurement of Enzymatic Activity. The activity of the immobilized lipoxygenase was assayed by measurement of hydroperoxide formation (Parra-Diaz, D. et al. [1993] supra). An aliquot of the substrate (5 μmoles of linoleic acid) dissolved in methylene chloride was placed in a 10 mL flask and evaporated to dryness under a stream of nitrogen. The reaction medium containing 0.2 mL of 100 mM deoxychlorate (DOC) and 1.8 mL of sodium borate buffer (0.2 M, pH 9.0) was added to the substrate, and the mixture was then shaken at 250 rpm for 0.5 h at 15° C. The reaction was initiated by adding a suitable amount (approximately 0.15 mg) free or immobilized LOX. Oxidation was conducted at 15° C. with agitation at 250 rpm for two hours. The reaction was quenched by adding 400 μL of 1 M citric add. Linoleic acid hydroperoxide was isolated by extracting the reaction mixture twice with 2 mL chloroform:methanol (2/1, v/v). After removing the solvent under a stream of nitrogen, the hydroperoxide was redissolved in 3 mL ethanol. The amount of hydroperoxide was determined spectrophotometrically by the xylenol orange method (Jiang, T.-Y. et al. [1991] Lipids 26:853-856). […] All results were corrected by subtracting the reading from controls without enzymes. […]
Effect of substrate concentration. The rate of hydroperoxide (HPOD) formation was measured at linoleic acid concentrations ranging from 0-20 μmoles. […]

Experiment [2] addresses T2, free soybean lipoxygenase (LOX, type I-B) (Glycine max, UniProt P08170).
T2 sequence (P08170 1-839): T1 sequence (P08170 1-839)
In words: LOX oxidation of linoleic acid, hydroperoxide (HPOD) formation, free enzyme. The settings on record: substrate linoleic acid; free LOX under similar conditions. Type of experiment: biochemical.
Protocol: Measurement of Enzymatic Activity. The activity of the immobilized lipoxygenase was assayed by measurement of hydroperoxide formation (Parra-Diaz, D. et al. [1993] supra). An aliquot of the substrate (5 μmoles of linoleic acid) dissolved in methylene chloride was placed in a 10 mL flask and evaporated to dryness under a stream of nitrogen. The reaction medium containing 0.2 mL of 100 mM deoxychlorate (DOC) and 1.8 mL of sodium borate buffer (0.2 M, pH 9.0) was added to the substrate, and the mixture was then shaken at 250 rpm for 0.5 h at 15° C. The reaction was initiated by adding a suitable amount (approximately 0.15 mg) free or immobilized LOX. Oxidation was conducted at 15° C. with agitation at 250 rpm for two hours. The reaction was quenched by adding 400 μL of 1 M citric add. Linoleic acid hydroperoxide was isolated by extracting the reaction mixture twice with 2 mL chloroform:methanol (2/1, v/v). After removing the solvent under a stream of nitrogen, the hydroperoxide was redissolved in 3 mL ethanol. The amount of hydroperoxide was determined spectrophotometrically by the xylenol orange method (Jiang, T.-Y. et al. [1991] Lipids 26:853-856). Standards were prepared by diluting a commercial cumene peroxide. […]

With `CCCCC/C=C\C/C=C\CCCCCCCC(=O)O` [linoleic acid], in experiment [1], the Km was determined as 1700 µM and the Vmax stood at 0.023 µmol/min. Also, in experiment [2], the Km came to 2500 µM and the Vmax was found to be 0.056 mol/min.
